Assays:
Type in all cases: in vivo
Alopecurus myosuroides = test: Exemple C: selectivity test in field crops, pre-emergence (weed); settings: 24 days
Text: (§1) Exemple C - Essai de sélectivité en grandes cultures avec application herbicide, en prélevée des espèces végétales
(§2) Dans des pots de 7 X 7 X 8 cm remplis de terre agricole légère, on sème un nombre de graines déterminé en fonction de l'espèce végétale et de la grosseur de la graine.
(§3) On recouvre ensuite les graines d'une couche de terre d'environ 3 mm d'épaisseur.
(§4) Les pots sont alors traités par pulvérisation de bouillie en quantité correspondant à une dose volumique d'application de 500 l/ha et contenant la matière active à la concentration désirée.
(§5) La bouillie a été préparée de la même manière qu'à l'exemple A.
(§6) Les pots traités sont ensuite placés dans des bacs destinés à recevoir l'eau d'arrosage, en subirrigation, et maintenus pendant 24 jours à température ambiante sous 70 % d'humidité relative.
(§7) Le relevé est effectué de la façon suivante:
(§8) Au bout de 24 jours, on mesure un pourcentage (D) de destruction du nombre de pieds dans le pot traité par rapport au nombre de plantes dans les pots non traités (témoin). On mesure, sur les plantes traitées restantes, le pourcentage de réduction de taille (RT) par rapport aux plantes témoins.
(§9) Le pourcentage de volume foliaire non détruit par le produit est donc donné par la formule: ([100-D] X [100-RT])/(100)= A [formula]
(§10) Cette valeur A est transformée en notation de 0 à 5 selon l'échelle suivante:
(§11) Ainsi, un produit est jugé comme sélectif vis à vis de la culture lorsque la valeur A notée est de 0 ou 1.
(§12) Les résultats obtenus sont présentés dans l'exemple C pour des doses d'application de 500, 1000, 2000 ou 4000 g de matière active par hectare selon les produits.
(§13) Les espèces végétales utilisées dans cet exemple sont: […]

Digitaria sanguinalis = test: as above; settings: 24 days
Text: as §1, §2, §3, §4, §5, §6, §7, §8, §9, §10, §11, §12, §13

Echinochloa crus-galli = test: as above; settings: 24 days
Text: as §1, §2, §3, §4, §5, §6, §7, §8, §9, §10, §11, §12, §13

Panicum milicaeum = test: as above; settings: 24 days
Text: as §1, §2, §3, §4, §5, §6, §7, §8, §9, §10, §11, §12, §13

Setaria faberii = test: as above; settings: 24 days
Text: as §1, §2, §3, §4, §5, §6, §7, §8, §9, §10, §11, §12, §13

Sorghum halepense = test: as above; settings: 24 days
Text: as §1, §2, §3, §4, §5, §6, §7, §8, §9, §10, §11, §12, §13

blé = test: Exemple C: selectivity test in field crops, pre-emergence (crop); settings: 24 days, 0 or 1 = selective; also: ranges in brackets are in %
Text: as §1, §2, §3, §4, §5, §6, §7, §8, §9, §10, §11, §12
(§14) Les espèces végétales utilisées dans cet exemple sont:
(§15) Comme on peut le voir sur le tableau de résultats de cet exemple C, de nombreux produits présentent une excellente activité antigraminée de prélevée tout en montrant une excellente sélectivité pour 1 ou 2 ou 3 ou 4 des 4 cultures testées = blé, maïs, riz, soja.

maïs = test: as above; settings: 24 days, 0 or 1 = selective; also: ranges in brackets are in %
Text: as §1, §2, §3, §4, §5, §6, §7, §8, §9, §10, §11, §12, §14, §15

riz = test: as above; settings: 24 days, 0 or 1 = selective; also: ranges in brackets are in %
Text: as §1, §2, §3, §4, §5, §6, §7, §8, §9, §10, §11, §12, §14, §15

soja = test: as above; settings: 24 days, 0 or 1 = selective; also: ranges in brackets are in %
Text: as §1, §2, §3, §4, §5, §6, §7, §8, §9, §10, §11, §12, §14, §15

SMILES | Notation de l'activité herbicide ALO (Alopecurus myosuroides; dose 1 Kg m.a./ha) | Notation de l'activité herbicide DIG (Digitaria sanguinalis; dose 1 Kg m.a./ha) | Notation de l'activité herbicide ECh (Echinochloa crus-galli; dose 1 Kg m.a./ha) | Notation de l'activité herbicide PAN (Panicum milicaeum; dose 1 Kg m.a./ha) | Notation de l'activité herbicide SET (Setaria faberii; dose 1 Kg m.a./ha) | Notation de l'activité herbicide SOR (Sorghum halepense; dose 1 Kg m.a./ha) | Notation de l'activité herbicide TRZ (blé; dose 1 Kg m.a./ha) | Notation de l'activité herbicide ZEA (maïs; dose 1 Kg m.a./ha) | Notation de l'activité herbicide ORY (riz; dose 1 Kg m.a./ha) | Notation de l'activité herbicide GLY (soja; dose 1 Kg m.a./ha) | further results
C=C(CS(=O)(=O)c1sc(C)nc1C)c1cccc(F)c1 [compound 45] | 5 (O à 10) | 4 (10 à 30) | 5 (O à 10) | 5 (O à 10) | 3 (30 à 50) | 5 (O à 10) | 1 (70 à 90) | 0 (90 à 100) | 0 (90 à 100) | 0 (90 à 100) | 
C=C(CS(=O)(=O)c1sc(C)nc1C)c1cc(C)cc(C)c1 [compound 46] | 5 (O à 10) | 5 (O à 10) | 4 (10 à 30) | 5 (O à 10) | 1 (70 à 90) | 1 (70 à 90) | 0 (90 à 100) | 0 (90 à 100) | 0 (90 à 100) | 0 (90 à 100) | 
C=C(CS(=O)(=O)c1sc(C)nc1C)c1cccc(C)c1 [compound 47] | 5 (O à 10) | 5 (O à 10) | 4 (10 à 30) | 5 (O à 10) | 2 (50 à 70) | 3 (30 à 50) | 0 (90 à 100) | 1 (70 à 90) | 2 (50 à 70) | 0 (90 à 100) | 
C=C(CS(=O)(=O)c1cc(C)sc1C)c1ccccc1 [compound 51] | 4 (10 à 30) | 5 (O à 10) | 4 (10 à 30) | 4 (10 à 30) | 4 (10 à 30) | 4 (10 à 30) | 0 (90 à 100) | 0 (90 à 100) | 0 (90 à 100) | 0 (90 à 100) | 
O=S(=O)(CC(O)(CBr)c1cccc(F)c1)c1cccs1 (stereo not drawn) [compound 53, 1-bromo 2-(3-fluorophényl) 3-(2-thiénylsulfonyl) 2-propanol] |  |  |  |  |  |  |  |  |  |  | Notation de l'activité herbicide ALO (Alopecurus myosuroides; dose 0.5 Kg m.a./ha): 2 (50 à 70); Notation de l'activité herbicide DIG (Digitaria sanguinalis; dose 0.5 Kg m.a./ha): 4 (10 à 30); Notation de l'activité herbicide ECh (Echinochloa crus-galli; dose 0.5 Kg m.a./ha): 4 (10 à 30); Notation de l'activité herbicide PAN (Panicum milicaeum; dose 0.5 Kg m.a./ha): 1 (70 à 90); Notation de l'activité herbicide SET (Setaria faberii; dose 0.5 Kg m.a./ha): 1 (70 à 90); Notation de l'activité herbicide SOR (Sorghum halepense; dose 0.5 Kg m.a./ha): 4 (10 à 30); Notation de l'activité herbicide TRZ (blé; dose 0.5 Kg m.a./ha): 0 (90 à 100); Notation de l'activité herbicide ZEA (maïs; dose 0.5 Kg m.a./ha): 2 (50 à 70); Notation de l'activité herbicide ORY (riz; dose 0.5 Kg m.a./ha): 3 (30 à 50); Notation de l'activité herbicide GLY (soja; dose 0.5 Kg m.a./ha): 0 (90 à 100)
CS(=O)(=O)OCC(O)(CS(=O)(=O)c1cccs1)c1cc(Cl)cc(Cl)c1 (stereo not drawn) [compound 56, 2-(3,5-dichlorophényl) 1-méthylsulfonate 3-(2-thiénylsulfonyl) 2-propanol] |  | 5 (O à 10) | 5 (O à 10) | 5 (O à 10) | 5 (O à 10) | 2 (50 à 70) | 2 (50 à 70) | 1 (70 à 90) | 2 (50 à 70) | 0 (90 à 100) | 
CC(=O)OC(CBr)(CS(=O)(=O)c1sccc1Br)c1ccccc1 (stereo not drawn) [compound 60, 2-acétoxy 3-bromo 1-[(3-bromo 2-thiényl)sulfonyl] 2-phényl propane] |  |  |  |  |  |  |  |  |  |  | Notation de l'activité herbicide ALO (Alopecurus myosuroides; dose 0.5 Kg m.a./ha): 2 (50 à 70); Notation de l'activité herbicide ECh (Echinochloa crus-galli; dose 0.5 Kg m.a./ha): 5 (O à 10); Notation de l'activité herbicide PAN (Panicum milicaeum; dose 0.5 Kg m.a./ha): 3 (30 à 50); Notation de l'activité herbicide SET (Setaria faberii; dose 0.5 Kg m.a./ha): 4 (10 à 30); Notation de l'activité herbicide SOR (Sorghum halepense; dose 0.5 Kg m.a./ha): 5 (O à 10); Notation de l'activité herbicide TRZ (blé; dose 0.5 Kg m.a./ha): 0 (90 à 100); Notation de l'activité herbicide ZEA (maïs; dose 0.5 Kg m.a./ha): 0 (90 à 100); Notation de l'activité herbicide ORY (riz; dose 0.5 Kg m.a./ha): 0 (90 à 100); Notation de l'activité herbicide GLY (soja; dose 0.5 Kg m.a./ha): 0 (90 à 100)
O=S(=O)(CC(O)(CBr)c1cc(Cl)cc(Cl)c1)c1cccs1 (stereo not drawn) [compound 62] |  | 5 (O à 10) | 5 (O à 10) | 4 (10 à 30) | 4 (10 à 30) | 2 (50 à 70) | 2 (50 à 70) | 1 (70 à 90) | 2 (50 à 70) | 0 (90 à 100) | 
Cc1ccsc1S(=O)(=O)CC(O)(CBr)c1ccccc1 (stereo not drawn) [compound 63] | 3 (30 à 50) | 5 (O à 10) |  | 4 (10 à 30) | 5 (O à 10) | 5 (O à 10) | 3 (30 à 50) | 2 (50 à 70) | 4 (10 à 30) | 0 (90 à 100) | 
O=S(=O)(CC(O)(CBr)c1cccc(Cl)c1)c1ccsc1 (stereo not drawn) [compound 64] | 3 (30 à 50) | 5 (O à 10) | 5 (O à 10) | 5 (O à 10) | 5 (O à 10) | 2 (50 à 70) | 0 (90 à 100) | 2 (50 à 70) | 2 (50 à 70) | 0 (90 à 100) | 
C=C(CS(=O)(=O)/C=C/C)c1ccccc1 [compound 70, (E)-2-phényl 1-(1-propénylsulfonyl)2-propène] |  |  |  |  |  |  |  |  |  |  | Notation de l'activité herbicide ALO (Alopecurus myosuroides; dose 2 Kg m.a./ha): 4 (10 à 30); Notation de l'activité herbicide ECh (Echinochloa crus-galli; dose 2 Kg m.a./ha): 5 (O à 10); Notation de l'activité herbicide PAN (Panicum milicaeum; dose 2 Kg m.a./ha): 3 (30 à 50); Notation de l'activité herbicide SET (Setaria faberii; dose 2 Kg m.a./ha): 3 (30 à 50); Notation de l'activité herbicide SOR (Sorghum halepense; dose 2 Kg m.a./ha): 5 (O à 10); Notation de l'activité herbicide TRZ (blé; dose 2 Kg m.a./ha): 2 (50 à 70); Notation de l'activité herbicide ZEA (maïs; dose 2 Kg m.a./ha): 0 (90 à 100); Notation de l'activité herbicide ORY (riz; dose 2 Kg m.a./ha): 1 (70 à 90); Notation de l'activité herbicide GLY (soja; dose 2 Kg m.a./ha): 0 (90 à 100)
